# Biological target: Human factor D (Homo sapiens (Human), UniProt P00746)
# Assay type: biochemical
# Chain of Human factor D (P00746 26-253 limits assumed): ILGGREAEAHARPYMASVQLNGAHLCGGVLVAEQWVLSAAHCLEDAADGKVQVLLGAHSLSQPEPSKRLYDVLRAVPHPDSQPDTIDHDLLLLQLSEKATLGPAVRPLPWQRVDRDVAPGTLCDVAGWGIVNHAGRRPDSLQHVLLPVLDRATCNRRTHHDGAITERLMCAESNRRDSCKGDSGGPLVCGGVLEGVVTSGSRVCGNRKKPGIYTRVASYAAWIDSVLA
row,SMILES,IC50
1,"CC(=O)c1cn(CC(=O)N2C[C@H](F)C[C@H]2C(=O)NCc2cccc(Cl)c2F)c2cc(P(=O)(O)OCOC(=O)C(C)(C)C)ccc12 [Compound 28, ((3-acetyl-1-(2-((2S,4R)-2-(3-chloro-2-fluorobenzylcarbamoyl)-4-fluoropyrrolidin-1-yl)-2-oxoethyl)-1H-indol-6-yl)(hydroxy)phosphoryloxy) methyl pivalate]",< 1000 nM
2,"CC(=O)c1cn(CC(=O)N2C[C@H](F)C[C@H]2C(=O)NCc2cccc(Cl)c2F)c2cc(P(=O)(O)OCC(F)(F)F)ccc12 [Compound 29, 2,2,2-trifluoroethyl hydrogen 3-acetyl-1-(2-((2S,4R)-2-(3-chloro-2-fluorobenzylcarbamoyl)-4-fluoropyrrolidin-1-yl)-2-oxoethyl)-1H-indol-6-ylphosphonate]",< 1000 nM
3,"CCOP(=O)(OCC)c1cc2c(cc1F)c(C(C)=O)cn2CC(=O)N1C[C@H](F)C[C@H]1C(=O)NCc1cccc(Cl)c1F [Compound 30, diethyl 3-acetyl-1-(2-((2S,4R)-2-(3-chloro-2-fluorobenzylcarbamoyl)-4-fluoropyrrolidin-1-yl)-2-oxoethyl)-5-fluoro-1H-indol-6-ylphosphonate]",< 1000 nM
4,"CC(=O)c1cn(CC(=O)N2C[C@H](F)C[C@H]2C(=O)NCc2cccc(Cl)c2F)c2cc(P(=O)(O)O)c(F)cc12 [Compound 31, 3-acetyl-1-(2-((2S,4R)-2-(3-chloro-2-fluorobenzylcarbamoyl)-4-fluoropyrrolidin-1-yl)-2-oxoethyl)-5-fluoro-1H-indol-6-ylphosphonic acid]",< 1000 nM
5,"O=C(NCc1cccc(Cl)c1F)[C@@H]1C[C@@H](F)CN1C(=O)Cn1cc(C(=O)C(F)(F)F)c2ccc(P(=O)(O)O)cc21 [Compound 32, 1-(2-((2S,4R)-2-(3-chloro-2-fluorobenzylcarbamoyl)-4-fluoropyrrolidin-1-yl)-2-oxoethyl)-3-(2,2,2-trifluoroacetyl)-1H-indol-6-ylphosphonic acid]",< 1000 nM
